Measured values taken from patent US8476298B2 (Exelixis, Inc., priority 2003, dated 2013).
Like-named read-outs stand apart in the source and are kept apart here.

Assays:
[1] = target: T1, KDR (baculovirus expressed human KDR kinase domain D807-V1356) (Homo sapiens, UniProt P35968); assay: biochemical;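 also: Luciferase-coupled chemiluminescent kinase assay, activity read as percent ATP left after 4 h reaction at ambient temperature, ATP near KM, 10-point dose-response in 384-well plates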
T1 construct: human KDR kinase domain D807-V1356; host or cells: baculovirus expression

c-Kit kinase = c-Kit kinase (Homo sapiens, UniProt P10721); assay: c-Kit AlphaScreen kinase assay; format: biochemical;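 also: c-Kit kinase phosphorylating biotinylated poly(Glu,Tyr), ATP near its KM, 1 h reaction at ambient temperature, AlphaScreen chemiluminescence with streptavidin donor and anti-phosphotyrosine acceptor beads, 10-point inhibitor titration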
[2] = target: T2, c-Met (baculovirus expressed human c-Met kinase domain P948-S1343) (Homo sapiens, UniProt P08581); assay: c-Met Luciferase-Coupled Chemiluminescent Kinase assay (LCCA); format: biochemical;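 also: kinase activity read as percent ATP left after reaction, by luciferase-luciferin chemiluminescence, with 1 µM ATP and 1 µM poly-EY substrate, 2 h at ambient temperature, 10-point dose-response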
T2 construct: human c-Met kinase domain P948-S1343; host or cells: baculovirus expression
Procedure: Kinase activity and compound inhibition are investigated using one or more of the three assay formats described below. The ATP concentrations for each assay are selected to be close to the Michaelis-Menten constant (KM) for each individual kinase. Dose-response experiments are performed at 10 different inhibitor concentrations in a 384-well plate format. […] Typically H is close to unity. c-Met Assay
c-Met biochemical activity was assessed using a Luciferase-Coupled Chemiluminescent Kinase assay (LCCA) format as described above. Again, kinase activity was measured as the percent ATP remaining following the kinase reaction. Remaining ATP was detected by luciferase-luciferin-coupled chemiluminescence. Specifically, the reaction was initiated by mixing test compounds, 1 μM ATP, 1 μM poly-EY and 10 nM c-Met (baculovirus expressed human c-Met kinase domain P948-S1343) in a 20 uL assay buffer (20 mM Tris-HCL pH7.5, 10 mM MgCl2, 0.02% Triton X-100, 100 mM DTT, 2 mM MnCu2). The mixture is incubated at ambient temperature for 2 hours after which 20 uL luciferase-luciferin mix is added and the chemiluminescent signal read using a Wallac Victor^2 reader.

[3] = target: T3, Flt-3 (baculovirus expressed human Flt-3 kinase domain R571-S993) (Homo sapiens, UniProt P36888); assay: biochemical; details: read-out: flt3 IC50;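 also: Luciferase-coupled chemiluminescent kinase assay, activity read as percent ATP left after a 3 h reaction at room temperature, ATP near KM, 10-point dose-response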
T3 construct: human Flt-3 kinase domain R571-S993; host or cells: baculovirus expression
T3 sequence (P36888 571-993): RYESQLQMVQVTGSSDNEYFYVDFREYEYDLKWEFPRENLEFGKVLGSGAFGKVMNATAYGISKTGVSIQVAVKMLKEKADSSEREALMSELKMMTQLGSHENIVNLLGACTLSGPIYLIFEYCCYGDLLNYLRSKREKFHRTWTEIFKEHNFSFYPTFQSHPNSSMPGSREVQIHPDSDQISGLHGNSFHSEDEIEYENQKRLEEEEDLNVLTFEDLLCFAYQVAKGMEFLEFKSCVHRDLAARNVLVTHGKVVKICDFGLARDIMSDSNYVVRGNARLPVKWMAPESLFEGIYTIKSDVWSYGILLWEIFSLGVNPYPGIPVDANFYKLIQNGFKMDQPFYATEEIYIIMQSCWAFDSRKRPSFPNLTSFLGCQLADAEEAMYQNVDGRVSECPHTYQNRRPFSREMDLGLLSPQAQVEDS

[4] = target: T4, Flt-4 (baculovirus expressed human Flt-4 kinase domain D725-R1298) (Homo sapiens, UniProt P35916); assay: flt-4 Alphascreen Tyrosine Kinase assay; format: biochemical; details: read-out: flt4 IC50;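 also: AlphaScreen chemiluminescence read-out of biotinylated poly(Glu,Tyr) 4:1 phosphorylation via streptavidin donor and PY100 anti-phosphotyrosine acceptor beads, ATP near KM, 1 hr kinase reaction, 10-point dose-response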
T4 construct: human Flt-4 kinase domain D725-R1298; host or cells: baculovirus expression

[5] = Table 4, inhibition as IC50 class

T2 sequence (P08581 1011-1343 limits assumed): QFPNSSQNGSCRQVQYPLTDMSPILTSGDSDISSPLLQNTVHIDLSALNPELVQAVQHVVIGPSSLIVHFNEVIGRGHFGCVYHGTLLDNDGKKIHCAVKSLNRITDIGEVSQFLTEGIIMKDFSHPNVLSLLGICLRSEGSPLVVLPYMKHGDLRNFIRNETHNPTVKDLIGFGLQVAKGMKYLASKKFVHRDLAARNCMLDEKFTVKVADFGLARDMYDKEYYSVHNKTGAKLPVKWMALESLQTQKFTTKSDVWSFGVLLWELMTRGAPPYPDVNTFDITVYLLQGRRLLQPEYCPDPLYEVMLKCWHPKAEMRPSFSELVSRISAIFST
Chain of c-Kit kinase (P10721 26-976): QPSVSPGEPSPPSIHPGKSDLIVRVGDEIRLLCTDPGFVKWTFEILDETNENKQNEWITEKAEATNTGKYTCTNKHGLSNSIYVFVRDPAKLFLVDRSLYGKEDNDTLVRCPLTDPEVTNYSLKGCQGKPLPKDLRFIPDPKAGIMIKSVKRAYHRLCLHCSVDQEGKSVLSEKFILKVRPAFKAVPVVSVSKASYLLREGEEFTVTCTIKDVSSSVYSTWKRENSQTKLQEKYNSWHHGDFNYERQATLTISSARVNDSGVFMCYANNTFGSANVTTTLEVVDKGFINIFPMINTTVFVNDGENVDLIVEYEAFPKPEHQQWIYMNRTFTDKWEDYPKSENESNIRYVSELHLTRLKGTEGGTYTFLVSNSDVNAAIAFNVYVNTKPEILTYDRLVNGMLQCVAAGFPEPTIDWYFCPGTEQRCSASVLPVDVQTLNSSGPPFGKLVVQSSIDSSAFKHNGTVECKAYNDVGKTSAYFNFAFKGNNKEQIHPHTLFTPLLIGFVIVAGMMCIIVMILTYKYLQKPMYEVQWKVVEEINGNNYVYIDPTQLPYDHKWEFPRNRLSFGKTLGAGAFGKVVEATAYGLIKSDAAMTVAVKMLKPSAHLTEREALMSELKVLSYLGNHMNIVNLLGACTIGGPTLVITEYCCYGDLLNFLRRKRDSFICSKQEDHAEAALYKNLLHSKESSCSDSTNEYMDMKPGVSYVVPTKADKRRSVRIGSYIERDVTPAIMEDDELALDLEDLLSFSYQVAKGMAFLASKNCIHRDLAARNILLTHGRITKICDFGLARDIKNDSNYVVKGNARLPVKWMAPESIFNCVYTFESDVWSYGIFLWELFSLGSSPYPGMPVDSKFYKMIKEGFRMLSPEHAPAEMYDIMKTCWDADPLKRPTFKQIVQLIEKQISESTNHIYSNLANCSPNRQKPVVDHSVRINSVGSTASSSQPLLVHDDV
T1 sequence (P35968 807-1356): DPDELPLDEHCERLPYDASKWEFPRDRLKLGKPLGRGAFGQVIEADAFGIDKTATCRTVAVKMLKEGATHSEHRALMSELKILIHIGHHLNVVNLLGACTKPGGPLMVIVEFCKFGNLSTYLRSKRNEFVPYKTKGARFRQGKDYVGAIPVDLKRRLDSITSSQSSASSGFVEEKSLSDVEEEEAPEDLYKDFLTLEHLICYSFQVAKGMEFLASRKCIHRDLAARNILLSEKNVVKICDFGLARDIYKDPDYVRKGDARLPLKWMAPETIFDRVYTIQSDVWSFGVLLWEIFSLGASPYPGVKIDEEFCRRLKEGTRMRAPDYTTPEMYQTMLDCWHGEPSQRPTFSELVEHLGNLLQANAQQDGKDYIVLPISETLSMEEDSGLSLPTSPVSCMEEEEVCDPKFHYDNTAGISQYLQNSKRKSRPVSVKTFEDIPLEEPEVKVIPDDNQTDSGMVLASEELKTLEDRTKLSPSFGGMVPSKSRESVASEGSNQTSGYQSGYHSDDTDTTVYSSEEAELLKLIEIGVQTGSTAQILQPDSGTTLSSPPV
T4 sequence (P35916 725-1298 isoform P35916-1): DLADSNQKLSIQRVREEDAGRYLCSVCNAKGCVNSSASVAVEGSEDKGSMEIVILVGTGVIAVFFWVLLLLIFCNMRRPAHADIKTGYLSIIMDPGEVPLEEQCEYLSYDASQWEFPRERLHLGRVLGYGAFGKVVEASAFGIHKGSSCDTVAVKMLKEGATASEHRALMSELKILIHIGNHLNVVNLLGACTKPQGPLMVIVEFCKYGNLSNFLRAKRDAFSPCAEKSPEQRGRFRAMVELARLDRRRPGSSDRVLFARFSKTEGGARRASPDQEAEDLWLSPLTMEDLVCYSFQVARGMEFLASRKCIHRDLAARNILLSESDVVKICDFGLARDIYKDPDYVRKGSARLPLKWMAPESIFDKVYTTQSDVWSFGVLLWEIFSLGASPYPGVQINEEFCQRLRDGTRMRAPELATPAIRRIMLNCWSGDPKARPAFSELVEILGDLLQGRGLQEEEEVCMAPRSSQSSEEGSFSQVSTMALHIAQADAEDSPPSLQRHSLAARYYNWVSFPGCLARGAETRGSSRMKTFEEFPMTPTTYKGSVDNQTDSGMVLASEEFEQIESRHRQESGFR

SMILES: COc1cc2nccc(Oc3ncc(NC(=O)CC(=O)Nc4ccccc4)cc3Cl)c2cc1OC [Example 291, N-(6-{[6,7-bis(methyloxy)quinolin-4-yl]oxy}-5-chloropyridin-3-yl)-N′-phenylpropanediamide]
- IC50 [1]: 500 to 5000 nM
- IC50 (c-Kit kinase): 50 to 500 nM
- IC50 [2]: < 50 nM
- IC50 [3]: < 50 nM
- IC50 [4]: 500 to 5000 nM

SMILES: COc1cc2c(Oc3ccc(NC(=O)C(=O)NCCc4ccccc4)cc3F)ccnc2cc1OCC1CN(C)C1 [Example 250, N-(3-fluoro-4-{[7-{[(1-methylazetidin-3-yl)methyl]oxy}-6-(methyloxy)quinolin-4-yl]oxy}phenyl)-N′-(2-phenylethyl)ethanediamide]
- IC50 [1, 5]: < 50 nM
- IC50 (c-Kit kinase; [5]): < 50 nM
- IC50 [2, 5]: < 50 nM
- IC50 [3, 5]: < 50 nM
- IC50 [4, 5]: < 50 nM

SMILES: CCN(CC)CCOc1cc2nccc(Oc3ccc(NC(=O)C4(C(=O)Nc5ccc(F)cc5)CC4)cc3F)c2cc1OC [Example 304, N-(4-{[7-{[2-(diethylamino)ethyl]oxy}-6-(methyloxy)quinolin-4-yl]oxy}-3-fluorophenyl)-N′-(4-fluorophenyl)cyclopropane-1,1-dicarboxamide]
- IC50 [1]: < 50 nM
- IC50 (c-Kit kinase): < 50 nM
- IC50 [2]: < 50 nM
- IC50 [3]: < 50 nM
- IC50 [4]: < 50 nM

SMILES: COc1cc2c(Oc3ccc(NC(=O)C(=O)NCc4cccc(C(F)(F)F)c4F)cc3F)ccnc2cc1OCC1CCNCC1 [Example 277, N-[3-fluoro-4-({6-(methyloxy)-7-[(piperidin-4-ylmethyl)oxy]quinolin-4-yl}oxy)phenyl]-N′-{[2-fluoro-3-(trifluoromethyl)phenyl]methyl}ethanediamide]
- IC50 [1, 5]: < 50 nM
- IC50 (c-Kit kinase; [5]): < 50 nM
- IC50 [2, 5]: < 50 nM
- IC50 [3, 5]: < 50 nM
- IC50 [4, 5]: < 50 nM

SMILES: COc1cc2nccc(Oc3c(F)cc(NC(=O)C4(C(=O)Nc5ccc(F)cc5)CC4)c(F)c3F)c2cc1OC [Example 327, N-(4-{[6,7-bis(methyloxy)quinolin-4-yl]oxy}-2,3,5-trifluorophenyl)-N′-(4-fluorophenyl)cyclopropane-1,1-dicarboxamide]
- IC50 [1]: < 50 nM
- IC50 (c-Kit kinase): 50 to 500 nM
- IC50 [2]: < 50 nM
- IC50 [3]: 50 to 500 nM
- IC50 [4]: 50 to 500 nM

SMILES: COc1cc2nccc(Oc3ccc(NC(=O)C4(C(=O)Nc5ccc(F)cc5)CC4)cc3F)c2cc1OCCCN1CCOCC1 [Example 322, N-[3-fluoro-4-({7-(methyloxy)-6-[(3-morpholin-4-ylpropyl)oxy]quinolin-4-yl}oxy)phenyl]-N′-(4-fluorophenyl)cyclopropane-1,1-dicarboxamide]
- IC50 [1]: < 50 nM
- IC50 (c-Kit kinase): < 50 nM
- IC50 [2]: < 50 nM
- IC50 [3]: < 50 nM
- IC50 [4]: < 50 nM

SMILES: COc1cc2c(Oc3ncc(NC(=O)CC(=O)Nc4ccc(F)cc4)cc3Cl)ccnc2cc1OCCCN1CCCCC1 [Example 265, N-[5-chloro-6-({6-(methyloxy)-7-[(3-piperidin-1-ylpropyl)oxy]quinolin-4-yl}oxy)pyridin-3-yl]-N′-(4-fluorophenyl)propanediamide]
- IC50 [1, 5]: 50 to 500 nM
- IC50 (c-Kit kinase; [5]): 50 to 500 nM
- IC50 [2, 5]: < 50 nM
- IC50 [3, 5]: < 50 nM
- IC50 [4, 5]: 50 to 500 nM

SMILES: CCN(CC)CCCOc1cc2nccc(Oc3ncc(NC(=O)CC(=O)Nc4ccc(F)cc4)cc3Cl)c2cc1OC [Example 267, N-(5-chloro-6-{[7-{[3-(diethylamino)propyl]oxy}-6-(methyloxy)quinolin-4-yl]oxy}pyridin-3-yl)-N′-(4-fluorophenyl)propanediamide]
- IC50 [1, 5]: 50 to 500 nM
- IC50 (c-Kit kinase; [5]): 50 to 500 nM
- IC50 [2, 5]: < 50 nM
- IC50 [3, 5]: < 50 nM
- IC50 [4, 5]: 50 to 500 nM

SMILES: COc1cc2c(Oc3ccc(NC(=O)C(=O)NCCc4ccc(F)cc4)cc3F)ccnc2cc1OCC1CCN(C)CC1 [Example 258, N-{3-fluoro-4-[(6-(methyloxy)-7-{[(1-methylpiperidin-4-yl)methyl]oxy}quinolin-4-yl)oxy]phenyl}-N′-[2-(4-fluorophenyl)ethyl]ethanediamide]
- IC50 [1, 5]: < 50 nM
- IC50 (c-Kit kinase; [5]): < 50 nM
- IC50 [2, 5]: < 50 nM
- IC50 [3, 5]: < 50 nM
- IC50 [4, 5]: < 50 nM
